The text below walks through data of patent US20250361281A1, “AMYLIN RECEPTOR (hAMY3R) AGONISTS WITH IMPROVED CHEMICAL STABILITY” (GUBRA A/S, priority 2022, published 2025).

Each structure is given as a SMILES string. Starred links: 1 amine or outer side, 2 acyl side, 3 side chain; linkers in the order of their positions; H or OH if unused. Positions of bridges follow the written chain, without caps; N, C: chain ends. Non-standard residues stand in square brackets, D forms with d. Residues, ends and D or L forms follow the SMILES beside them. *: point of attachment. C20 diacid = O=C(O)CCCCCCCCCCCCCCCCCCC(=O)*; γGlu = O=C(O)[C@H](CCC(=O)[*:2])N[*:1]; Hyp = O=C(O)[C@@H]1C[C@@H](O)CN1; CH2 = C([*:1])[*:2]

Data set [1] is described as follows: Determination of deamidation and isomerization (LC-MS). The format is physicochemical. The settings on record: 50 mM phosphate buffer pH 7, 40° C., up to 28 days. The protocol:
General Protocol for Determination of Deamidation and Isomerization
Peptides were dissolved in 50 mM phosphate buffer (pH 7) and incubated at 40° C. for up to 28 days. The samples were then analysed on a Exploris120 mass spectrometer coupled to a Vanquish Tandem UPLC (both Thermo Fisher) equipped with an Acquity BEH C18 column (1.7 um, 2.1×50 mm, 130A, Waters). Peptides were eluted using a linear gradient starting at 5% over 7.5 min to 70% buffer B at a flow rate of 0.4 mL/min (buffer B=100% acetonitrile with 0.1% formic acid; buffer A=100% water with 0.1% formic acid). Data were acquired in data-dependent acquisition mode at a MS1 resolution of 60.000, and a MS2 resolution of 30.000 in positive mode (Top4). Peptides were fragmented with a normalized collision energy of 25%. Deamidation and isomerization were quantified using area under the curve integration.

Data set [2] in a line: Physical stability of peptide analogues (Thioflavin T fibrillation). The format is physicochemical. The settings on record: ThT fluorescence, 40° C., shaking, four days; pH 4 or pH 7 buffer. As for the experimental part: General Protocols for Determination of Physical Stability of Peptide Analogues
Peptides were dissolved in buffers (50 mM sodium acetate at pH 4 or 50 mM sodium phosphate at pH 7) and incubated for one hour. The samples were then divided into two replicates of 80 μl in a black 384 well plate (μ-clear, Greiner Bio-One) and mixed with Thioflavin T (ThT) to a final concentration of 4 μM. The plate was sealed and placed in a plate reader (CLARIOstar, BMG) where the temperature was set at 40° C. during the course of the experiment. The samples were further stressed by shaking the plate at 700 rpm (linear) for five minutes before every measurement. The fluorescence was measured every 10 min for four days by exciting the ThT at 450 nm and measuring the emission at 480 nm. For each peptide, the ThT signal over time was smoothened using Local Polynomial Regression fitting (LOESS) as implemented in the statistical programming environment R. For the smoothened data, the maximum ThT signal was normalized in percent between the maximum ThT signal for hAMY and the buffer background.

A further data set deals with T1, hAM1 receptor (Homo sapiens, UniProt O60895+Q16602).
T1 construct: monoclonal sub-clone
T1 sequence (Q16602 23-461): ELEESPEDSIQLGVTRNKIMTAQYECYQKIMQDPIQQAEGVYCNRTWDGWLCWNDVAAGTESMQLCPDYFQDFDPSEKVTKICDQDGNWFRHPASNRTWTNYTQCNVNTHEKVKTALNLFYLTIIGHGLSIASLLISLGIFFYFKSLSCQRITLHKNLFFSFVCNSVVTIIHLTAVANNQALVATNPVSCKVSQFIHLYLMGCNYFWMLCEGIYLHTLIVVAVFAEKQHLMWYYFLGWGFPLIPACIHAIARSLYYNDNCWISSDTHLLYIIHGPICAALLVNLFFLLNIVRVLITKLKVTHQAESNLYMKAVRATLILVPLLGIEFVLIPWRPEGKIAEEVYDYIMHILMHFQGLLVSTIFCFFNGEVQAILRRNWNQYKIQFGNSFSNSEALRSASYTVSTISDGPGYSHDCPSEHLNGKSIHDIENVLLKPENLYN
T1 sequence (O60895 43-175 partner): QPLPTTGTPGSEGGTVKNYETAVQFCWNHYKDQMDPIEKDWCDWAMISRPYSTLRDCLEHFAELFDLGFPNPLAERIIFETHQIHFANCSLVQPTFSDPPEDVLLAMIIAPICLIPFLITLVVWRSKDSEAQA
The experiment in a line: cAMP assay for in vitro receptor activation, hAM1-R. The settings on record: cells stably overexpressing hAM1 receptor, cAMP accumulation, 30 min stimulation; read-out: hAM1R EC50. Format: cell-based. As for the experimental part:
General Protocols for cAMP Assays for Measuring In Vitro Receptor Activation hAMY3-R:
Cells stably overexpressing the hAM1 receptor were obtained from Ogeda (now Astellas Pharma), sub-cloned and a monoclonal cell-line with an appropriate assay-window was expanded, aliquoted and frozen. An aliquot was thawed and plated in DPBS with 0.05% casein and 0.5 mM IBMX as 8000 cells/well in a 384-well format.
Background: cAMP levels reflect the balance of adenylyl cyclase and phosphodiesterase activity.

Data set [3] in a line: Determination of dimer and HMWP formation (size exclusion chromatography). The format is physicochemical. The settings on record: 50 mM phosphate buffer pH 7, 40° C., up to 28 days. As for the experimental part: General Protocol for Determination of Dimer and HMWP Formation
Peptides were dissolved in 50 mM phosphate buffer (pH 7) and incubated at 40° C. for up to 28 days. The samples were then analysed using size exclusion chromatography analysis to quantify the amount of High Molecular Weight Products (HMWP), which is an overall term for covalently linked peptide dimers, trimers, and higher order multimers. Analyses were carried out on a Dionex Ultimate 3000 RS UHPLC Focused chromatography system (Thermo Scientific) equipped with a Acquity Protein BEH SEC 1.7 μm 4.6×300 mm 125 Å column (Waters part no 186006506). The solvent system consisted of two mobile phases that are assumed to break all non-covalent interactions between peptides leaving only monomeric peptide and covalent HMWP to be analysed. • Mobile phase A (all v/v %): 95% H2O, 5% MeCN (Acetonitrile), 0.1% TFA (Trifluoroacetic acid) • Mobile phase B (all v/v %): 95% MeCN, 5% H2O, 0.1% TFA
The typically load was 1 μl of 1.0 mg/ml, and the detection signal at 215 nm should optimally be between 0.1 and 1.5 abs units. Isocratic elution was done with 60% mobile phase B and a flow of 0.3 ml/min in 20 minutes. Chromatograms were integrated as HMWP (all peaks in front of the main peak) The amount of the various species was reported as area relative to total area in percentage.
Background: SEC sorts molecules by how far they enter the pores of the column.

Consider `CC[C@H](C)[C@H](NC(=O)[C@H](CCC(N)=O)NC(=O)[C@H](CCC(=O)O)NC(=O)[C@H](C)NC(=O)[C@H](CC(C)C)NC(=O)[C@H](CCCNC(=N)N)NC(=O)[C@H](C)NC(=O)[C@@H](NC(=O)[C@@H](NC(=O)[C@@H]1CSCSC[C@H](NC(=O)[C@H](CCCCN)NC(=O)CC[C@H](NC(=O)CCCCCCCCCCCCCCCCCCC(=O)O)C(=O)O)C(=O)N[C@@H](CC(C)C)C(=O)N[C@@H]([C@@H](C)O)C(=O)N[C@@H](C)C(=O)N[C@@H]([C@@H](C)O)C(=O)N1)[C@@H](C)O)C(C)C)C(=O)N[C@@H](C)C(=O)N[C@@H](CCC(N)=O)C(=O)N[C@@H](Cc1ccccc1)C(=O)N[C@H](C(=O)N[C@@H](CC(=O)O)C(=O)N[C@@H](CCCCN)C(=O)N[C@@H](CC(=O)O)C(=O)N[C@@H](CCCCN)C(=O)N[C@@H](CCC(=O)O)C(=O)N[C@@H](CC(N)=O)C(=O)N[C@H](C(=O)N[C@@H](C)C(=O)N1CCC[C@H]1C(=O)N1CCC[C@H]1C(=O)N[C@H](C(=O)N[C@@H](C)C(=O)N[C@H](C(=O)NCC(=O)N[C@@H](CO)C(=O)N[C@@H](C)C(=O)NCC(=O)N1C[C@H](O)C[C@H]1C(N)=O)C(C)C)[C@@H](C)O)C(C)C)[C@@H](C)O` [SEQ ID NO: 4] ({C20 diacid-γGlu}-KCLTATCTVARLAEQIAQFTDKDKENVAPPTAVGSAG[Hyp]-NH2; linker 2-7 via CH2), for which the Deamidation in data set [1] and in data set [1] (listed as 4) was below 5% in each case. This molecule also showed an Isomerization in data set [1] of 1.2%. In addition, the Fibril formation result in data set [2] is reported as “No”. Moreover, the concentration for a half-maximal effect (EC50) at hAM1 receptor is above 5 µM. The “Dimerization and HMWP formation” value in data set [3] was 2%.

The term EC50 denotes the concentration needed to bring the measured effect to its halfway point.
